The values below come from US20260131007A1, “Mannose 6-Phosphate Receptor Binding Compounds for the Degradation of Extracellular Proteins” (Avilar Therapeutics, Inc., priority 2023, published 2026).

One assay relates to IgG. The assay is described as follows: Uptake and degradation in K562 cells (Western blot). Type of assay: cell-based, human. The following applies: K562 cells treated with compound and IgG; FIG. 14-17. How it is done: On day one, cells were harvested, counted, and seeded 1 million/well in 6 well plates for each cell line. On day two, cells were treated with compounds and IgG (Sigma, Cat #14506 dissolved in medium). Treated cells were washed three times with PBS, followed by addition of 200 μL of RIPA buffer (+HALT protease and phosphatase inhibitors) per well. Lysates were left on ice for 5 minutes then were collected into microcentrifuge tubes using a cell scraper. Lysates were then kept on a shaker for 30-60 minutes at 4° C. followed by centrifugation at 14,000 rpm at 4° C. for 15 minutes. Then, supernatants were transferred to fresh tubes and total protein concentration of each sample was determined using Pierce BCA kit. Next, 25 ug total protein of each sample was resolved on a 4-20% gels and transferred to PVDF membranes. Membranes were blocked in TBST+5% milk (made fresh) for one hour while shaking at room temperature. Then, the first antibody was added in TBST+5% milk at 4° C. overnight: a) Rabbit anti-human IgG, Abcam; Cat #ab181236-1:1000, b) anti-β-actin, Cell signaling Tech, Cat #3700S)-1:3000. On the next day, membranes were washed with TBST 10 minutes each for three times. Later, the second antibody was added in TBST+5% milk at room temperature over one hour: a) IRDye 800CW Goat anti Rabbit IgG, Licor, Cat #926-32211)-1:10,000; b) IRDye 680RD Goat anti Mouse IgG (Licor Cat #926-68078)-1:10,000. Then, membranes were washed with TBST 10 minutes each for three times. The results were detected by Licor. Data from the uptake and degradation assay is shown in FIG. 14, FIG. 15, FIG. 16, and FIG. 17.

The subject of the next assay is human IgG (hIgG). The assay is described as follows: DMPK study: degradation of coadministered human IgG in rats. The format is in vivo. The following applies: male SD rats, IgG 200 mg/kg IV, compound IV an hour later; FIG. 11, FIG. 12. How it is done: The dose formulation of IgG at 200 mg/kg was administered via IV injection to male SD rats, and Compound 5 was administered via IV injection an hour later (after IgG dosing). About 0.2 mL of blood was collected via jugular vein at each time point and was transferred into pre-cooled low binding EP tubes containing 4 μL of K2-EDTA (0.5 M) as anti-coagulant placed on wet ice. After blood was collected, the samples were processed for plasma by centrifugation at approximately 4° C., 3200 g for 10 minutes, the plasma was obtained within 30 minutes of blood collection. Then the plasma was transferred to two clean low binding EP tubes (50 μL each, one for PK, one for PD) and quickly frozen over dry ice and kept below −60° C. or lower for LC-MS/MS analysis. Plasma concentration versus time data was plotted in graph and analyzed by non-compartmental approaches using the Phoenix WinNonlin 6.3 software program. Related PK parameters were calculated according to dosing route, e.g. CL, Vdss and C0 for intravenous administration, Cmax, Tmax or % F for extravascular administration, and T1/2, AUC(0-1), AUC(0-inf), MRT(0-1), MRT(0-inf) for all routes. The quantification of human IgG concentration in animal plasma was conducted using human IgG ELISA kit. Plotted pharmacokinetic and pharmacodynamic data can be found in FIG. 10, FIG. 11, FIG. 12, and FIG. 13.

Assay [1] concerns the target T1, hIGF-IIR and IgG1 (ternary complex) (Homo sapiens, UniProt P01857+P11717).
T1 construct: purchased R&D Systems 6418-GR
The assay can be described thus: HTRF-based ternary complex formation assay for hIGF-IIR targeting Extracellular Protein Degraders. The format is binding. The source says:
The ternary complex formation assay is designed to identify and determine the potency of Extracellular Protein Degrader molecules which can induce the formation of ternary complex between the Extracellular Protein Degrader hIGF-IIR. Titrating Extracellular Protein Degrader to fixed amount of hIGF-IIR results in a bell-shaped curve (except molecules whose binary complex affinity between Extracellular Protein Degrader and hIGF-IIR). The peak mean represents Extracellular Protein Degrader concentration at which maximum ternary complex is formed. Too much or too little Extracellular Protein Degrader leads to decreased ternary complex formation due to formation of binary complex (Hook effect). Dose response of Extracellular Protein Degrader compounds (16-point 3-fold dilution series, 100X) were prepared by Echo Acoustic Liquid Handler (Beckman Coulter Life Sciences) using 384-well LDV microplate. Then 200 nL of the solutions were transferred to an OptiPlate 384-well microplate (PerkinElmer, 6007290). To the assay plate, 10 μL working solution containing 60 nM of Biotinylated-IgG1 (Viva 20211108) and 60 nM of His-tagged hIGF-IIR (R&D Systems, 6418-GR) in assay buffer 50 mM Tris, pH 7.5, 150 mM NaCl, 50 mM CaCl2, 0.01% Tween-20 were added. The plate was incubated for 60 min at room temperature with gentle shaking to allow molecular interaction to reach equilibration. Following this, 10 μL of HTRF detection solution containing 15 nM Streptavidin-d2 (PerkinElmer, 610SADLA) and 0.7 nM MAb Anti 6HIS—Tb cryptate (PerkinElmer, 61HISTLA) in PPI Terbium detection buffer (PerkinElmer, 61DB10RDF) were added. The assay plate was incubated at room temperature with gentle shaking for 60 min to allow HTRF signal to develop. The plate was gently spun on a centrifuge then placed on an EnVision plate reader (Perkin Elmer, EnVision 2104) to read fluorescence ratio of 665 nm/615 nm. Data were analyzed by fitting with Bell-shaped non-linear regression model using GraphPad Prism (GraphPad Software, LLC; version 9.4.1). Mean fluorescence intensity is graphed versus compound concentration and the EC50 for TCF is calculated from the inflection point of the curve (GraphPad).

For a further assay, the system named is K562 cells. The assay is described as follows: Ternary complex formation (TCF) in K562 cells, flow cytometry with AF488-labeled human IgG. The format is cell-based. The following applies: AF488-labeled human IgG 300 nM, 4° C., 1 hour. How it is done:
K562 cells were seeded in 96-well assay plate using K562 cell medium, then compounds and AF488-labeled human IgG (final concentration of 300 nM) were added at 4° C. and incubated for 1 hour. Afterwards, the cells were washed once with 1×PBS+0.1% BSA (Cold) and centrifuged at 1000 rpm for 5 minutes. Next, cells were re-suspended in 150 μL 1×PBS+0.1% BSA and ran flow cytometry on iQue® Screener PLUS.

The structures appear in SMILES notation. A value given as a limit tells only on which side of the number the result lay.

As to `CC(C)C[C@@H]1NC(=O)[C@H](Cc2cnc[nH]2)NC(=O)[C@H](Cc2c[nH]c3ccccc23)NC(=O)[C@H](C)NC(=O)[C@@H]2CSSC[C@H](NC(=O)[C@H](Cc3c[nH]c4ccccc34)CC(=O)[C@H](C(C)C)NC(=O)[C@H](CC(C)C)NC(=O)[C@H](CCC(=O)O)NC(=O)CNC1=O)C(=O)N[C@@H]([C@@H](C)O)C(=O)N1CCC[C@@H]1C(=O)N1C[C@@H](NC(=O)COCCOCCOCC(=O)NC(COCCC(=O)NCCOCCn3cc(CCO[C@H]4O[C@H](CCP(=O)(O)O)[C@@H](O)[C@H](O)[C@@H]4O)nn3)(COCCC(=O)NCCOCCn3cc(CCO[C@H]4O[C@H](CCP(=O)(O)O)[C@@H](O)[C@H](O)[C@@H]4O)nn3)COCCC(=O)NCCOCCn3cc(CCO[C@H]4O[C@H](CCP(=O)(O)O)[C@@H](O)[C@H](O)[C@@H]4O)nn3)C[C@H]1C(=O)N[C@@H](CC(=O)O)C(=O)N2` [Compound 5], the “degradation of IgG (gel electrophoresis image)” value with IgG was “degradation of IgG”. Besides, the “degradation of coadministered human IgG (percent of initial hIgG over time)” value in the assay on human IgG (hIgG) is given as “degradation of coadministered human IgG”. Moreover, the concentration giving a half-maximal response (EC50) in assay [1] is < 50 nM; with K562 cells it was 50 to 250 nM.
